Legend:
[1] = tested on: pseudocomedone (utriculus) of the rhino mouse; assay: Topical rhino mouse pseudocomedone (utriculus) reduction assay; format: in vivo; design: Utriculus reduction (Table 1) / Utriculus reduction (Table 3): key to the marks not given beside the values; conditions: for Utriculus reduction (Table 1): 0.1% concentration, once daily 5 days/week for two weeks; for Utriculus reduction (Table 3): concentration 0.1 (unit not given); for Utriculus Reduction (Table 7): two weeks
Method: A topical assay to test for pseudocomedone (utriculus) reduction in the rhino mouse is conducted.
Each test compound and a vehicle control is applied topically to the dorsal trunk of the rhino mouse. The utriculus diameters are measured with a ocular micrometer. […] Kligman, et al., The Effect on Rhino Mouse Skin of Agents which Influence Keratinization and Exfoliation, J. Invest. Derm. […] Van Scott, Experimental Animal Integumental Models for Screening Potential Dermatologic Drugs, In Pharmacology of the Skin, eds. […] Mann, Hair Loss and Cyst Formation in Hairless and Rhino Mutant Mice, Anat. Rec. […] Mezick, et al., Topical and Systemic Effects of Retinoids on Horn-Filled Utriculus Size in the Rhino Mouse. A Model to Quantify Antikeratinizing Effects of Retinoids, J. Invest. Derm. […] Mezick, et al., Anti-Acne Activity of Retinoids in the Rhino Mouse, In Models in Dermatology, eds.
(§1) The dorsal trunk of the rhino mouse is the test site. Each test compound is dissolved in alcohol:propylene glycol (70:30, v:v) or other suitable vehicle and topically applied (0.1 ml) to the dorsal trunk once daily, five consecutive days/week for two weeks. Also, administration may be oral (p.o.) in a suitable vehicle. Following treatment, the animals are sacrificed by cervical dislocation. The treated dorsal trunk skin is removed from the animal and placed into 0.5% acetic acid for up to 18 hours at approximately 4° C. After this, the epidermis with the acne cysts is separated from the underlying dermis. The sheets of epidermis are processed by routine methods to permanent whole mounts for microscopic examination. Also, full-thickness samples may be taken, stained (H&E), and examined by light microscopy.
The utriculus diameters are measured with an ocular micrometer to compare effects of test compounds to vehicle control and/or reference compound on cyst reduction. Light microscopy is used to determine effects on cell differentiation.
Another topical assay is conducted following the procedure described above.
Each test compound and a vehicle control was applied topically to the dorsal trunk of the rhino mouse. The utriculus diameters are measured with a ocular micrometer. […] Kligman, et al., J. Invest. […] Van Scott, Pharmacology of the Skin, eds. […] Mann, Anat. […] Mezick, et al, J. Invest. […] Mezick et al., Models in Dermatology, eds.
as §1, with “(70:30,v:v)” for “(70:30, v:v)”, “weeks.” for “weeks. Also, administration may be oral (p.o.) in a suitable vehicle.”, “"acne cysts"” for “acne cysts”, “are” for “may be”, “(H&E)” for “(H&E),”, “microscope.” for “microscopy.”

[2] = tested on: Human neonatal foreskin fibroblasts; assay: Growth of human neonatal foreskin fibroblasts (cell number); format: cell-based; conditions: two days
Text: Human neonatal foreskin keratinocytes and human neonatal foreskin fibroblasts were isolated and grown in monlayer culture. Culture medium for keratinocytes was Keratincyte Growth Medium (KGM) from Clonetics, Inc., San Diego. Calif. The culture medium for fibroblasts was Dulbecco's Modified Eagle's Medium (DMEM) supplemented with non-essential amino acids and 10% fetal bovine serum. The culture medium was obtained from GIBCO, Grand Island, N.Y. and the FBS was from Hyclone Labs, Inc., Logan, Utah.
Cells at passage 2-4 were plated in wells of a 24 well dish at approximately 5×10^4 cells per well in their respective culture medium. Incubation was at 37° C. with 5% CO2. After the cells attached and spread overnight, they were washed two times in serum-free keratincyte basal medium (KBM) and incubated in 1 ml of KBM or in 1 ml of KGM. Compound IV was added in varying concentrations to the wells. All-trans-retinoic acid (or no treatment) was added to control wells. The cells were incubated for an additional two days for fibroblasts and three days for keratinocytes, and were then harvested and counted. The effect of IV and of the controls are shown for both cell types in Tables 9 and 10: […]

[3] = tested on: partial-thickness skin wounds; conditions: cited from earlier work
[4] = tested on: skin (inner forearm, cheek); assay: Topical assay for comparative dermal irritation in human subjects; format: in vivo, human (patients); conditions: for Irritant reactions, inner forearm: first test, 0.025% solution; for Irritant reactions, inner forearm / Irritant reaction, inner forearm: twice daily for ten days; for Irritant reaction, inner forearm: second test, one subject of four reacted; for Irritant reaction, inner forearm / Irritation of the cheeks: 0.075% solution; for Irritation of the cheeks: third test, twice daily, six days
Method: 2-(9-cis-retinoyloxy)-4-methoxyacetophenone is evaluated in a study of its potential to produce dermal irritation. Comparisons are made of tretinoin, isotretinoin, 2-(9-cis-retinoyloxy)-4-methoxyacetophenone, and the vehicle solution.
In the first test, four solutions are used. The control consists of vehicle solution, namely a solution of 60% by volume ethanol and 40% by volume polyethylene glycol. The other three solutions are 0.025% solutions of tretinoin, isotretinoin, or 2-(9-cis-retinoyloxy)-4-methoxyacetophenone in 60% by volume ethanol and 40% by volume polyethylene glycol. Four patients paint two saturated cotton swabs of each of the four solutions on four different areas of the inner forearm, twice daily for ten days.
In the second test, four other solutions are used. The control consists of vehicle solution, namely a solution of 90% by volume ethanol and 10% by volume polyethylene glycol. The other three solutions are 0.075% solutions of tretinoin, isotretinoin, or 2-(9-cis-retinoyloxy)-4-methoxyacetophenonein 90% by volume ethanol and 10% by volume polyethylene glycol. Four patients paint two saturated cotton swabs of each of the four solutions on four different areas of the inner forearm, twice daily for ten days. Only one subject experiences an irritant reaction. […] By day nine, both areas are still reacting, the tretinoin area more intensely than the isotretinoin area. There is no reaction in either the 2-(9-cis-retinoyloxy)-4-methoxyacetophenone or the control areas.
In the third test, three solutions are used. The three solutions are 0.075% solutions of tretinoin, isotretinoin, or 2-(9-cis-retinoyloxy)-4-methoxyacetophenone in 90% by volume ethanol and 10% by volume polyethylene glycol. Four patients paint two saturated cotton swabs of the 2-(9-cis-retinoyloxy)-4-methoxyacetophenone solution twice daily on one cheek of their faces. To the other cheek they apply two saturated cotton swabs of either tretinoin or isotretinoin.
The tests are carried out in double-blind fashion, that is, neither the subjects nor the investigator know the contents of the solutions during the study.
Clinical assessments are made daily of the subjects cheeks. All subjects develop irritant reactions by the third or fourth day of the study.

SMILES | Utriculus reduction (Table 1) [1] | Utriculus reduction (Table 3) [1] | Utriculus Reduction (Table 7) ([1]; dose 0.0005%) | Utriculus Reduction (Table 7) ([1]; dose 0.005%) | Utriculus Reduction (Table 7) ([1]; dose 0.05%) | Number of fibroblasts ([2]; 0.25 μg/ml) | Number of fibroblasts ([2]; 0.5 μg/ml) | Number of fibroblasts ([2]; 1.0 μg/ml) | Effect on healing when applied after wounding ([3]; applied after wounding) | Rate of healing ([3]; pre-treated with 0.05% tretinoin cream for 10 days prior to wounding) | Irritant reactions, inner forearm [4] | Irritant reaction, inner forearm [4] | Irritation of the cheeks [4]
CC1=C(/C=C/C(C)=C/C=C/C(C)=C/C(=O)O)C(C)(C)CCC1 [all-trans-retinoic acid, reference compound] | ++ | ++ | 34.1 | 49.9 | 72.8 | 10.1 ± 0.2 × 10^4 cells | 10.1 ± 0.1 × 10^4 cells | 9.6 ± 0.1 × 10^4 cells | deleterious effect on healing | 6% | No irritant reactions occur | On day two, the tretinoin area begins reacting with redness and peeling | reactions which are so intense with redness and peeling that all subjects discontinue application on or before the sixth day
COc1ccc(C(=O)COC(=O)/C=C(C)/C=C/C=C(C)\C=C\C2=C(C)CCCC2(C)C)cc1 [Compound 2, 2-(9-cis-retinoyloxy)-4'-methoxyacetophenone] | +++ | +++ |  |  |  |  |  |  |  |  | No irritant reactions occur | no reaction | slightly irritated or not irritated at all
